Values of other authors as cited in patent US11795119B2, “Stabilized DCD and/or alkyl thiophosphoric triamide solvent systems and use in agricultural applications” (RHODIA OPERATIONS, priority 2016, dated 2023).

Legend:
[1] = typically above 45° C.

SMILES | solubility in water | degradation at higher temperature [1]
N#CNC(=N)N [Dicyandiamide, 2-cyanoguanidine] | about 41 g/l | –
CCCCNP(N)(N)=S [NBPT, N-(n-butyl)-thiophosphoric triamide] | – | degrades rapidly
